SMILES strings stand for the structures.

In the assay the target is T1, human BRS-3 (Homo sapiens, UniProt P32247).
T1 construct: expressed in transfected cells
T1 sequence (P32247 1-399): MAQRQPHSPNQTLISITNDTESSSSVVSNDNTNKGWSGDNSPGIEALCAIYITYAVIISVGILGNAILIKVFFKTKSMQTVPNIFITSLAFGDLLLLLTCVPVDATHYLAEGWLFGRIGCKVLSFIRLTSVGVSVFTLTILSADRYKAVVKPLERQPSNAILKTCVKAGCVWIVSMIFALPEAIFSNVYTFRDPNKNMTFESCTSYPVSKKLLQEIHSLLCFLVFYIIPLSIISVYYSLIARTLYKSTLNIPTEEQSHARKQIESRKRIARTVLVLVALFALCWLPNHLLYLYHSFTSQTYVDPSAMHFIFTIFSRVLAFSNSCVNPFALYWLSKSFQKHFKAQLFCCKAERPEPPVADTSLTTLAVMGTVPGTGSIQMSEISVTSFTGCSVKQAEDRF
The assay is described as follows: Bombesin Receptor Subtype 3 (BRS3) binding assay (radioligand filtration). The settings on record: BRS-3 Receptor Binding Activity for Selected Compounds. The protocol:
Dissociated cells were collected by centrifuging at 1000 rpm for 10 minutes. Cell pellets were resuspended and homogenized at 4° C. using a Polytron homogenizer (setting 40, 20 stokes) in approximately 10 mL membrane preparation buffer (10 mM Tris pH 7.4, 0.01 mM Pefabloc, 10 μM phosphoramidon and 40 μg/mL Bacitracin) per T175 flask. After centrifugation at 2200 rpm (1000×g) for 10 minutes at 4° C., the supernatant was transferred to a clean centrifuge tube and spun at 18,000 rpm (38,742×g) for 15 minutes. at 4° C. […]
The radioligand, [^3H]-1-{4-[(4,5-difluoro-2-hydroxycarbonylphenyl)phenyl])-2-(4-cyclohexylmethyl-1H-imidazol-2-yl)ethane, was used for binding to receptor membranes generated with BRS3 from other species and was also utilized for the human receptor. […] After incubation for 1-2 hours at room temperature, membrane bound [^3H]-biphenyl was separated from free radiologand by filtering through GF/C filters presoaked in 1% PEI solution. The filters were washed five times with ice-cold washing buffer (50 mM Tris pH 7.4, 10 mM MgCl2, 2.5 mM EDTA and 0.02% Triton X-100). The radioactivity was determined by adding 30 μl of microscintillant/well after each plate was dried at room temperature overnight or placed at 50° C. for 1 hr.
A Packard Top Count was used to read the filter plates. The data in % inhibition of binding was plotted vs. the log molar concentration of receptor ligand (compound). The IC50 was reported as the inflection point of the resulting sigmoidal curve.
For `CCC(C)(C)Cc1c[nH]c(CCc2ccc(-c3cccc(C)n3)cc2)n1` [Example 110], the IC50 (in general, the point on the concentration scale where inhibition reaches its midpoint) amounted to 0.0063 µM. That is a single-digit nanomolar value.

Compound `O=C(O)c1cc(F)c(F)cc1-c1ccc(CCc2nc(CC3CCCCC3)c[nH]2)cc1` [Example 94] registered an IC50 of 0.02 µM. This IC50 lies about 3.2-fold higher than the previous one.

As to `CCC(CF)(CF)Cc1cnc(CCc2ccc(-c3ccc(F)cn3)cc2)[nH]1` [Example 237, 2-(4-{2-[5-(2,2-Bis(fluoromethyl)butyl)-1H-imidazol-2-yl]ethyl}phenyl)-5-fluoro-pyridine], the IC50 was 0.015 µM.

Compound `CCC(C)(C)Cc1c[nH]c(CCc2ccc(N3CCCc4cn[nH]c43)cc2)n1` [Example 226, 7-(4-{2-[5-(2,2-Dimethylbutyl)-1H-imidazol-2-yl]ethyl}phenyl)-4,5,6,7-tetrahydro-1H-pyrazolo[3,4-b]pyridine] returned an IC50 of 0.018 µM.

For the compound `CCC(C)(C)Cc1c[nH]c(CCc2ccc(N3CCCC[C@@H]3C(=O)O)cc2)n1` [Example 225, (R)-N-(4-{2-[4-(2,2-Dimethylbutyl)-1H-imidazol-2-yl]ethyl}phenyl)piperidine-2-carboxylic acid], the IC50 amounted to 0.018 µM.

The compound `CC(C)(Cc1cnc(CCc2ccc(-c3ccc(F)cn3)cc2)[nH]1)C1CC1` [Example 236, 2-(4-{2-[5-(2-Cyclopropyl-2-methylpropyl)-1H-imidazol-2-yl]ethyl}phenyl)-5-fluoropyridine] displayed an IC50 of 0.025 µM.

As for `CCC(C)(C)Cc1c[nH]c(CCc2ccc(-c3ccccc3OCc3nn[nH]n3)cc2)n1` [Example 246, 5-(4′-{2-[4-(2,2-Dimethylbutyl)-1H-imidazol-2-yl]ethyl}biphenyl-2-yloxymethyl)-1H-tetrazole], the IC50 came out at 0.0053 µM.

Compound `CCC(C)(C)Cc1c[nH]c(CCc2ccc(C3CCCCC3C(=O)O)cc2)n1` (stereo not shown) [Example 227, 2-(4-{2-[4-(2,2-Dimethylbutyl)-1H-imidazol-2-yl]ethyl}phenyl)cyclohexanecarboxylic acid] showed an IC50 of 0.0028 µM.

`CC(C)(C)Cc1cnc(CCc2ccc(-c3ccccn3)cc2)[nH]1` [Example 240, 2-(4-{2-[4-(2,2-Dimethylpropyl)-1H-imidazol-2-yl]ethyl}phenyl)pyridine] had an IC50 of 0.116 µM. This IC50 lies about 41-fold higher than the previous one.

In the case of `CC(C)(C)Cc1cnc(CCc2ccc(-c3ccccc3C(=O)O)cc2)[nH]1` [Example 1, 4′-{2-[4-(2,2-Dimethylpropyl)-1H-imidazol-2-yl]ethyl}biphenyl-2-carboxylic Acid], the IC50 was found to be 0.038 µM.

On to `CCC(C)(C)Cc1c[nH]c(CCc2ccc(-c3cccc4cn[nH]c34)cc2)n1` [Example 221], for which the IC50 amounted to 0.0048 µM. This IC50 lies about 7.9-fold lower than the previous one.

In the case of `CCC(C)(C)Cc1c[nH]c(CCc2ccc(-n3cccn3)cc2)n1` [Example 205, 1-(4-{2-[4-(2,2-dimethylbutyl)-1H-imidazol-2-yl]ethyl}phenyl)-1H-pyrazole], the IC50 turned out to be 0.033 µM.

Compound `O=C(O)c1ccccc1-c1ccc(CCc2ncc(CC3CCCC3)[nH]2)cc1` [Example 26] came in with an IC50 of 0.117 µM.

The values are drawn from patent US8183275B2, “Substituted imidazoles as bombesin receptor subtype-3 modulators” (Merck Sharp & Dohme Corp., priority 2006, dated 2012).
